Measured values from patent US5932580A, “PDGF receptor kinase inhibitory compounds their preparation and compositions” (priority 1997, dated 1999).
pIC50: −log10 of the molar value. “Also recorded” adds a separate entry of the source. Where two headings read alike, the source gives them in different places.

Experiments:
neointimal formation = settings: controlled local delivery; rat carotid balloon injury model; cited from earlier work
Swiss 3T3 cells = settings: read-out: 50% inhibitory concentration, PDGF receptor kinase and PDGF dependent DNA synthesis; cited from earlier work
[1] = system: porcine aorta endothelial cells (EC); settings: read-out: 50% inhibitory concentration, PDGF receptor kinase and PDGF dependent DNA synthesis; cited from earlier work
[2] = system: epidermal growth factor receptor; settings: cited from earlier work
[3] = system: DNA synthesis stimulated by insulin, by epidermal growth factor, or by a combination of both; settings: cited from earlier work
[4] = system: fibroblast growth factor-dependent DNA synthesis; settings: relative to PDGF dependent DNA synthesis; cited from earlier work
human PDGF α-receptor = settings: cited from earlier work
human PDGF β-receptor = settings: cited from earlier work
[5] = system: stem cell factor receptor (c-Kit); settings: cited from earlier work
[6] = system: vascular endothelial growth factor receptor KDR; settings: cited from earlier work
[7] = system: porcine aortic endothelial cells; settings: cited from earlier work
[8] = system: sis-transfected NIH 3T3 cells; settings: cited from earlier work
[9] = system: src-transformed NIH 3T3 cells; settings: cited from earlier work
p60c-src(F527) = settings: cited from earlier work
PDGF β-receptor = biological target: T1, PDGF β-receptor (Sus scrofa, UniProt F1RL75); experiment: PDGF induced PDGFR autophosphorylation in intact SMC cells; type: cell-based; settings: porcine arterial SMC
T1 construct: PDGF-BB stimulated; immunoprecipitated with PDGF beta-receptor specific antiserum R3
Procedure: Effect of tyrphostins on PDGF induced PDGFR autophosphorylation in intact SMC cells: Subconfluent porcine arterial smooth muscle cells, cultivated in Dulbecco's modified Eagle's medium (DMEM) supplemented with 15% fetal calf serum (FCS), were synchronized for 20 hours in a medium containing 2% FCS. […] After stimulation, the cells were solubilized in Nonidet P-40 (1%) containing lysis buffer.
The analysis of PDGF p-receptor phosphorylation was performed as follows. Cell lysates were subjected to immunoprecipitation using the PDGF β-receptor specific antiserum R3 [5]. The percipitates were subjected to polyacrylamide (7.5%) gel electrophoresis in presence of sodium deducyl sulfate (SDS-PAGE) and were thereafter blotted onto a nitrocellulose membrane (Hybond C-EXTRA, Amersham). Phosphorylated proteins were detected by immunoblotting using the horseradish-peroxidase conjugated phosphotyrosine antibody RC20H (Transduction Laboratories), followed by chemoluminescence-based detection (ECL, Amersham) and autoradiography.
Detection of receptor proteins was performed as follows. Cell lysates were subjected to immunoprecipitation using the PDGF β-receptor specific antiserum R3 [5], as described above, and the percipitates washed three times and thereafter subjected to SDS-PAGE (7.5%) and blotting onto a nitrocellulose membrane (Hybond C-EXTRA, Amersham). Receptor proteins were detected by immunoblotting using the horseradish-peroxidase conjugated donkey anti-rabbit antibody (Amersham), followed by chemoluminescence-based detection (ECL, Amersham) and autoradiography.

[10] = system: porcine aortic smooth muscle cells (SMC); experiment: Inhibition of cell proliferation and recovery, porcine SMC; type: cell-based; settings: for inhibition at 10 µM: Sus scrofa
Procedure: Smooth muscle cells (SMC) were obtained under aseptic conditions from porcine abdominal aortas, and human internal mammary arteries (IMA). Specimens from the operating room were transferred on ice to the tissue culture room. Each artery was cut open and the endothelial surface mechanically scraped. […] The tissue fragments were then placed in an incubator at 37° C. under 9% CO2 atmosphere until SMC outgrowth was detected (typically within 3-7 days). […] For experiments testing the effect of tyrphostins on growth inhibition and recovery (see below), SMC from passages 1-3 were replated in 15 mm wells pretreated with 3 μg/cm^2 fibronectin (Biological Industries, Kibbutz Beit Haemek, Israel) at 15,000 cells/well.
(§1) Inhibition of cell proliferation and recovery: Monolayer cell growth inhibition and recovery experiments were repeated 3 or 4 times. Each experiment was performed in triplicate. […] Cultures were treated with a tyrphostin (10 μM) dissolved in 0.1% DMSO on days 1 and 3. On day 6, cultures were washed and the cells allowed to recover. Typically cells were counted on days 3 and 5 for inhibition, and on days 7, 10 and 15 for recovery, other schedules were also employed as reported below.

[11] = system: porcine endothelial cells (EC); experiment: Inhibition of cell proliferation and recovery, porcine EC; type: cell-based; settings: for inhibition at 10 µM: Sus scrofa, Endothelial cell
Source text: Endothelial cells (EC) were isolated from porcine carotid arteries. Using aseptic procedure, both common carotid arteries were isolated, and the distal end of each artery was cannulated through an arteriotomy and ligated. The arteries were then perfused with phosphate buffered saline (PBS) and the proximal end ligated isolating a 5-7 cm long blood-free portion of the artery. The isolated portion of each artery was filled with PBS containing calcium and magnesium and 0.1% collagenase (Boehringer Manneheim, Germany). The segments were excised and incubated for 10 min at 37° C. in sterile bottles containing PBS. […] Cells were seeded on fibronectin-coated dishes at a seeding density of 15,000 cells/well and incubated at 37° C. in 9% CO2. ECGS (25 μg/ml) was added every other day until confluence was observed, typically within 6-8 days.
as §1

[12] = system: human internal mammary artery smooth muscle cells (IMA SMC); experiment: Inhibition of cell proliferation and recovery, human IMA SMC; type: cell-based
Source text: Smooth muscle cells (SMC) were obtained under aseptic conditions from porcine abdominal aortas, and human internal mammary arteries (IMA). Specimens from the operating room were transferred on ice to the tissue culture room. Each artery was cut open and the endothelial surface mechanically scraped. The vessels were then cut into 2 mm^2 fragments which were placed in culture dishes with Dulbecco's modified Eagle's medium (DMEM) supplemented with 15% (v/v) fetal calf serum (FCS), 100 u/ml penicillin, 100 μg/ml streptomycin, and […] L-glutamine. The tissue fragments were then placed in an incubator at 37° C. under 9% CO2 atmosphere until SMC outgrowth was detected (typically within 3-7 days). […] For experiments testing the effect of tyrphostins on growth inhibition and recovery (see below), SMC from passages 1-3 were replated in 15 mm wells pretreated with 3 μg/cm^2 fibronectin (Biological Industries, Kibbutz Beit Haemek, Israel) at 15,000 cells/well.
Inhibition of cell proliferation and recovery: Monolayer cell growth inhibition and recovery experiments were repeated 3 or 4 times. Each experiment was performed in triplicate. Approximately 15,000 cells (SMC or EC) in 1 ml of culture medium supplemented with 15% FCS were seeded on day 0 in 15 mm-wells precoated with fibronectin. Cultures were treated with a tyrphostin (10 μM) dissolved in 0.1% DMSO on days 1 and 3. On day 6, cultures were washed and the cells allowed to recover. Typically cells were counted on days 3 and 5 for inhibition, and on days 7, 10 and 15 for recovery, other schedules were also employed as reported below. The medium supplemented with serum (M-199 with ECGS for EC, and DMEM for SMC) was changed every other day throughout the experiment.
FIG. 9 presents the maximal inhibitory and recovery effects on human IMA SMC growth inflicted by 10 or 25 μM of AG1851 and AG1295. Cells were grown in the presence of the specified tyrphostins and were counted after seven days in culture. On day 7 the cultures were washed and the cells allowed to recover. Seven days later they were counted for recovery. The bar graph show the maximal inhibition and the recovery in each experiment and for controls.

T1 sequence (F1RL75 109-1181): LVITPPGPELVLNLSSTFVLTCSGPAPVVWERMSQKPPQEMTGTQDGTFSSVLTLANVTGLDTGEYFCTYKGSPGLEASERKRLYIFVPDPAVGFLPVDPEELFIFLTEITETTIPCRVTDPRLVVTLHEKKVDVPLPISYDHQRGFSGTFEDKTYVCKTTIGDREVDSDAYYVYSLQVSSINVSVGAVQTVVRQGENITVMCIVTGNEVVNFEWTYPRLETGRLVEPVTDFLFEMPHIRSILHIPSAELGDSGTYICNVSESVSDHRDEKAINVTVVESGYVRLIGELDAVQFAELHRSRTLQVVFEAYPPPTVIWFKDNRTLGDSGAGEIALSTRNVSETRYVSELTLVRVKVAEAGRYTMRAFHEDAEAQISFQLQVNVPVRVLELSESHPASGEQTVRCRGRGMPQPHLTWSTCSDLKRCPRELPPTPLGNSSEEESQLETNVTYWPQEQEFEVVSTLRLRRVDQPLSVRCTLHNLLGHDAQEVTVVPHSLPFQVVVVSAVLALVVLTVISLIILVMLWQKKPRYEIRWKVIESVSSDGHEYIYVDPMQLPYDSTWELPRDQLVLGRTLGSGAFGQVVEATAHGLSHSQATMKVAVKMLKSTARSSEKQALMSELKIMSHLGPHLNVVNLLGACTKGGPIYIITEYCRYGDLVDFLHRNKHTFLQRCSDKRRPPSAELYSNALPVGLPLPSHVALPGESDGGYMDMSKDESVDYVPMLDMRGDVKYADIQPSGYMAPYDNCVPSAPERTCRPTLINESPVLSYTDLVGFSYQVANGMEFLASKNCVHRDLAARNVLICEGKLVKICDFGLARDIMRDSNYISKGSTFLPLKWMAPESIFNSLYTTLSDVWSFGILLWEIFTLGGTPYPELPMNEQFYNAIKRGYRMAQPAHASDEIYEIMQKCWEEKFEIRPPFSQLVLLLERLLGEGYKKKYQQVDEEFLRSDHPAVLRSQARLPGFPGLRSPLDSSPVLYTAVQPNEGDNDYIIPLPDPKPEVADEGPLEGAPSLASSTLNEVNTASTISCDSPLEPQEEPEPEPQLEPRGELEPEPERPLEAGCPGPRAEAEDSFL

## CC(C)(C)c1cc(C=C(C#N)C#N)cc(C(C)(C)C)c1O [AG17]
Neointimal formation
  inhibition of neointimal formation: effectively inhibits neointimal formation

## COc1cc2ncc(-c3ccccc3)nc2cc1OC [AG1296]
Swiss 3T3 cells
  pIC50: > 5.30
[1]
  pIC50: > 6.00
[2]
  effect on epidermal growth factor receptor autophosphorylation: no effect
[3]
  effect on DNA synthesis stimulated by insulin, by epidermal growth factor, or by a combination of both: weak effects
[4]
  blocking effect on fibroblast growth factor-dependent DNA synthesis: over an order of magnitude weaker blocking effect
Human PDGF α-receptor
  inhibition of signalling of human PDGF α-receptor: potently inhibits
Human PDGF β-receptor
  inhibition of signalling of human PDGF β-receptor: potently inhibits
[5]
  inhibition of signalling of stem cell factor receptor (c-Kit): potently inhibits
[6]
  effect on autophosphorylation of KDR: no effect
[7]
  effect on DNA synthesis induced by vascular endothelial growth factor: no effect
[8]
  effect on transformed phenotype of sis-transfected NIH 3T3 cells: reverses the transformed phenotype
[9]
  effect on src-transformed NIH 3T3 cells: no effect
p60c-src(F527)
  effect on activity of the kinase p60c-src(F527) immunoprecipitated from src-transformed NIH 3T3 cells: no effect

## Cc1cc2ncc(-c3ccccc3)nc2cc1C [AG1295, reference compound]
PDGF β-receptor
  level of PDGF β-receptor protein present in the cells: without affecting the level
PDGF β-receptor; tyrphostin 10 μM, 60 min preincubation, PDGF-BB 100 ng/ml
  inhibition of PDGF-BB induced PDGF β-receptor tyrosine-phosphorylation: completely inhibited
[10]; 10 μM, FIGS. 3-7
  inhibitory effect on porcine SMC growth (in words): very potent growth inhibition effect; also recorded: highly effective in blocking proliferation; also recorded: very effective proliferation inhibitors
[10]; 10 μM, porcine SMC
  toxicity on SMC: low lasting toxicity
[10]; 72 h, read-out: mean reduction in SMC count compared to DMSO treated control cells, 10 μM, by day 3
  inhibition at 10 µM: 46%
[10]; 120 h, read-out: reduction in SMC count / inhibition of SMC growth over control, 10 μM, by day 5 (day given for AG1295 and AG1992)
  inhibition at 10 µM: 78%
[10]; read-out: maximal inhibitory effect on porcine SMC proliferation, FIG. 6 experiment, 10 μM
  inhibition at 10 µM: 65%
[10]; read-out: maximal inhibitory effect on porcine SMC proliferation, FIG. 7 experiment, 10 μM
  inhibition at 10 µM: 81%
[10]; read-out: mean reduction in SMC count compared to control cells (maximal inhibition in SMC growth), Table 2, 10 μM
  inhibition at 10 µM: 78%
[10]; porcine SMC, cultures washed, cells allowed to recover
  reversibility of the inhibitory effect / recovery of SMC growth after washout: completely reversible
[11]
  reversibility of the inhibitory effect on EC: completely reversible
[11]; 72 h, by day 3, read-out: mean reduction of EC growth compared to controls
  inhibition at 10 µM: ~10%
[11]; 120 h, by day 5, read-out: reduction of EC growth compared to controls
  inhibition at 10 µM: 13.5%
[11]; FIG. 8 experiment, 10 μM, read-out: maximal inhibitory effect on porcine EC proliferation
  inhibition at 10 µM: 22%
[12]; 25 μM
  reversibility of the effect on IMA SMC upon removal of the tyrphostin: completely reversible
[12]; Homo sapiens, 120 h, read-out: mean reduction / inhibition of IMA SMC proliferation compared to untreated or DMSO-treated cells
  inhibition at 25 µM: 48%
Swiss 3T3 cells
  pIC50: > 5.30
[1]
  pIC50: > 6.00
[2]
  effect on epidermal growth factor receptor autophosphorylation: no effect
[3]
  effect on DNA synthesis stimulated by insulin, by epidermal growth factor, or by a combination of both: weak effects
[4]
  blocking effect on fibroblast growth factor-dependent DNA synthesis: over an order of magnitude weaker blocking effect
